Where two headings read alike, the source gives them in different places.
Columns and labels:
Format in all cases: cell-based
BTK-GFP = molecular target: T1, BTK-GFP (Homo sapiens, UniProt Q06187+Q96SW2); assay: BTK-GFP protein abundance flow cytometry assay in HEK293A cells; conditions: 24 h; for BTK deg Amax %: % protein remaining at concentration of maximum degradation; for DC50: concentration at which 50% maximal degradation was observed
T1 construct: the BTK open reading frame (ORF) was first shuttled from a pcDNA-DEST40-BTK vector (Invitrogen library ID INV_20090504v1); expressed in transfected cells; host or cells: HEK293A cells (Invitrogen R70507), lentiviral transduction with pLenti6-BTK-GFP-Ires-RFP, blasticidin-selected
T1 sequence (Q06187 whole entry): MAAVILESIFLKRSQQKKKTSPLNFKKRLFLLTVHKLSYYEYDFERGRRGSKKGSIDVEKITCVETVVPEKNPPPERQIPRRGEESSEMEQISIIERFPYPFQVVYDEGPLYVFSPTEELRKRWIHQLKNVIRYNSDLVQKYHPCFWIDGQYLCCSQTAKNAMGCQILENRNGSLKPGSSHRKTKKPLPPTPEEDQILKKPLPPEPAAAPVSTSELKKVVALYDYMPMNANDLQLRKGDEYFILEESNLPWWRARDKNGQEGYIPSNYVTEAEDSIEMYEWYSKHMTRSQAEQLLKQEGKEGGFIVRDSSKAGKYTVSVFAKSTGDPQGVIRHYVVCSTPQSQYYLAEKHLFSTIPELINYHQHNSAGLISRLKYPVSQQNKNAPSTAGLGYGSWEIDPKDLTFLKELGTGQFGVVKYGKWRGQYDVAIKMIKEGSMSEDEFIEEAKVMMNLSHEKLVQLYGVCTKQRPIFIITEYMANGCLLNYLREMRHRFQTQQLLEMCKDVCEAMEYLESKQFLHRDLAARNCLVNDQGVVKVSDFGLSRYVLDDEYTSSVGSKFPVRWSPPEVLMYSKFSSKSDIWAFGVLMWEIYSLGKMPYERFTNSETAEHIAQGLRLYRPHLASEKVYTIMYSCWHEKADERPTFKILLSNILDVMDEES
T1 sequence (Q96SW2 whole entry): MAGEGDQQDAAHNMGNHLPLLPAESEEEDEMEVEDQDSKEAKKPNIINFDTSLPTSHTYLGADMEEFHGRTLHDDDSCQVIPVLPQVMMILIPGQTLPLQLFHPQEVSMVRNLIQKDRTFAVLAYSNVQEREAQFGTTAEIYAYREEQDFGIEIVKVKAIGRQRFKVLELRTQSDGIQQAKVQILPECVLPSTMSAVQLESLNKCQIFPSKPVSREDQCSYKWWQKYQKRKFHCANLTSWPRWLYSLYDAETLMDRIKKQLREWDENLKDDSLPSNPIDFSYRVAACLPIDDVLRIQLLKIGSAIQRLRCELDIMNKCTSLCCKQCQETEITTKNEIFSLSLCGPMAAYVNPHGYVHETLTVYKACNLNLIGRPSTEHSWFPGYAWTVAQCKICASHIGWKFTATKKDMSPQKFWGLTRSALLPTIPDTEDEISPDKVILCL
T1 sequence (Q16531 whole entry partner): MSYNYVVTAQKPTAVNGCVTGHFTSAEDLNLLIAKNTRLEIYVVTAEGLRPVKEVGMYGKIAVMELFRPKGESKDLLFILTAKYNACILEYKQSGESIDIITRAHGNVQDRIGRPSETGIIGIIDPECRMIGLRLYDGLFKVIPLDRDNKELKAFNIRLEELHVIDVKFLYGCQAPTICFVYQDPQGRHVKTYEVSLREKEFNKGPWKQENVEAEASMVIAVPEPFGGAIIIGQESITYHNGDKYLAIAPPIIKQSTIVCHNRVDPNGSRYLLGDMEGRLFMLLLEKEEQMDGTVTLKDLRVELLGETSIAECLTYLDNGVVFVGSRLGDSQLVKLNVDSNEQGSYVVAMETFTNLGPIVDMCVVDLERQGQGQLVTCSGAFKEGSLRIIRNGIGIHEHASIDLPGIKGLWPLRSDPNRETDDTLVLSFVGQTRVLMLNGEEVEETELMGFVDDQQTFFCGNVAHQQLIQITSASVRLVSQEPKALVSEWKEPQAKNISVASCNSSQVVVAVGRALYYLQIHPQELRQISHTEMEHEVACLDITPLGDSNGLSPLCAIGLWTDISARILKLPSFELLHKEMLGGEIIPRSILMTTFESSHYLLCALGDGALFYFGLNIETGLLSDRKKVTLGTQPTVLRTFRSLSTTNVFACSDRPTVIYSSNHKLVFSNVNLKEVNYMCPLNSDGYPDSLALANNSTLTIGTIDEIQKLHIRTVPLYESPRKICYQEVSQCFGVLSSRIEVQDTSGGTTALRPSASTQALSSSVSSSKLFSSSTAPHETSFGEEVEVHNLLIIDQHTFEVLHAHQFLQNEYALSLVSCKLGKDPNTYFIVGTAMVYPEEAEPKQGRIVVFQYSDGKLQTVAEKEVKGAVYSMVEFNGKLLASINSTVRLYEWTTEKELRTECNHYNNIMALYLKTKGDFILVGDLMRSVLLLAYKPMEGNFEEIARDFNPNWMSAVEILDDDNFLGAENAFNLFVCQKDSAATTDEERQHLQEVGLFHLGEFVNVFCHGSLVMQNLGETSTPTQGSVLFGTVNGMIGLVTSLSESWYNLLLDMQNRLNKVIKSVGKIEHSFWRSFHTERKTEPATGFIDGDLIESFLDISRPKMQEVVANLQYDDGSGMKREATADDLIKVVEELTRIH
Method: (§1) Compounds of the invention were tested in the following cellular assays. The terms in Table 1 are defined as follows: DC50 refers to the concentration at which 50% maximal degradation was observed; deg Amax is the extent of degradation and the value refers to the % protein remaining at the concentration at which maximum degradation is seen; Prol GI50 refers to the proliferation data and defines the concentration at which 50% growth inhibition was observed compared to the vehicle treated control at the end of the incubation time. TMD8 cells are BTK dependent and OCI-LY3 cells are BTK independent.
BTK-GFP and IKZF3-GFP Protein Abundance Flow Cytometry Assay in HEK293A Cells:
Degradation of BTK or IKZF3 was measured in HEK293A cells (Invitrogen R70507) expressing either BTK-GFP and RFP or IKZF3-GFP and RFP from a stably integrated bicistronic BTK-GFP-iresRFP or IKZF3-GFP-iresRFP construct, respectively. Reduction of the GFP signal measured by flow cytometry served as readout for BTK or IKZF3 degradation after degrader treatment.
Stable HEK293A-BTK-GFP-iresRFP cells were maintained in complete growth medium (DMEM high Glucose+10% FCS+1% L-Glutamine+1% NEAA+1% NaPyr.) with passaging performed twice per week. On Day 0, HEK293A-BTK-GFP-iresRFP or HEK293A-IKZF3-GFP-iresRFP and HEK293A-iresRFP cells were seeded at 10,000 cells/well in a 96-well microtiter plate in 260 μl complete medium. On Day 1, cells were treated in duplicate with 10-point 1:3 dilution series of compound using the HP D300 Digital Dispenser (Tecan). DMSO concentrations were normalized across the plate to 0.1%. On Day 2, after 24 h of incubation at 37° C., treatment media was discarded, cells rinsed with 100 ul/well PBS and then detached using 40 ul trypsin/well for 5 min. Trypsin was neutralized with 100 ul/well PBS+20% FCS). Flow cytometry was performed on the samples using the BD FACS CANTO II (Becton Dickinson). Cell identification was then performed using forward (FSC) vs. side scatter (SSC) plots. Single cell discrimination is performed using SSC-Width (SSC-W) vs. SSC-Height (SSC-H) plots. Median GFP values for 5,000 single cells are used to determine BTK levels. Median GFP values from HEK293A-iresRFP are used as a background signal and thus defining 0% BTK signal. Median GFP values from DMSO treated HEK293A-BTK-GFP-iresRFP or HEK293A-IKZF3-GFP-iresRFP are used to define 100% BTK signal for subsequent DC50 curves (concentration at 50% BTK degradation). GFP and RFP are read in the channels called FITC and PE, respectively.
Concentration response curves plotting relative reduction of the GFP signal (measured by flow cytometry) versus 10 compound concentrations (starting concentration 10 μM, 3 fold dilution steps) of the compounds allowed generation of DC50 values.

OCI-LY3 cells = assay: Resazurin cell viability assay in DLBCL cells (OCI-LY3); conditions: OCI-LY3 cells (BTK independent), 50% growth inhibition, read-out: OCI-LY3 Prol GI50
Method: as §1
(§2) Cell Viability Assay in DLBCL (Diffuse Large B-Cell Lymphoma) Cells:
(§3) The effect of the BTK compounds on cell proliferation was measured by a Resazurin (Sigma, #R7017) based cell viability assay. TMD8 (BTK compound sensitive) and OCI-LY3 (BTK compound insensitive) cells were incubated for 72 h at 37° C. and 5% CO2 with the corresponding compound. Resazurin is a non-toxic, cell-permeable substrate that is virtually non-fluorescent. Upon entering living cells, Resazurin (Sigma, #R7017) is reduced to highly fluorescent Resorufin. The metabolic activity was assessed by measuring the fluorescence signal (ex. 530 nm; em. 600 nm).
(§4) TMD8 and OCI-Ly3 cells were seeded at day 0 in triplicates at a cell density of 1×10^4 cells per 150 μl/well in a 96-well plate (Costar #3904). Additional plates were prepared, in order to assess the basal metabolic activity of both cell lines at the beginning of the experiment. For these reference plates, Resazurin (Sigma, #R7017) was added to a final concentration of 13 μg/ml 3 h post seeding and was incubated for 2 h at 37° C. and 5% CO2. Following incubation, the fluorescent signal intensity of the 96-well plates was measured on a Mithras LB940 multimode plate reader at 530/600 nm (Berthold Technologies, Germany).
(§5) In parallel, 3 h post-seeding, test-plates were treated with compound at various concentrations, or with vehicle (DMSO) alone for 3 days. The compound addition to the plates was performed by using a HP D300 digital dispenser (TECAN, Switzerland). The compounds were tested in triplicate, 8-point serial dilution (1:4), with a start concentration of 10 μM for OCI-LY3 and 1 μM for the TMD8 cells, respectively. To assess the relative proliferation of the cells, Resazurin was added to each well directly to the medium to a final concentration of 13 μg/ml. The plates were incubated for 2 h at 37° C. and 5% CO2 to result in a 72 h endpoint. Following incubation, the fluorescent signal intensity of the 96-well plates were measured on a Mithras LB940 multimode plate reader at 530/600 nm (Berthold Technologies, Germany). The formation of Resorufin dye directly correlates with the number of metabolically active cells. For each triplicate treatment the mean and standard deviation were calculated and analyzed via curve fitting software to determine the respective compound concentration resulting in 50% growth inhibition (GI50) values. For each compound GI50 values were typically determined from at least 2 entirely independent experiments.
OCI-LY3 cells were acquired through a license agreement with University Health Network, Toronto, Canada. Cells are cultivated in RPMI1640 media (Gibco, #61870-010, lot. 1894759), supplemented with 10% FCS (HyClone, GE #SH30066.03, lot AB217603), 2 mM L-Glutamine (BioConcept, #5-10K50-H, lot. LA03467P), 1 mM Sodium Pyruvate (BioConcept, #5-60F00-H, lot. LB10510P), 10 mM HEPES (Gibco, #15630-056, lot. 1854074), 1% Pen/Strep (BioConcept, #4-01F00-H, lot. LB04235P).

TMD8 cells = assay: Resazurin cell viability assay in DLBCL cells (TMD8); conditions: TMD8 cells (BTK dependent), 50% growth inhibition, read-out: TMD8 Prol GI50
Method: as §1, §2, §3, §4, §5
TMD8 cells were acquired through a license agreement with Tokyo Medical and Dental University, Japan. Cells are cultivated in MEM Alpha (BioConcept, #1-23F01-I, lot. LB04262P) supplemented with 10% FCS (HyClone, GE #SH30066.03, lot AB217603), 2 mM L-Glutamine (BioConcept, #5-10K50-H, lot. LA03467P), 1% Pen/Strep (BioConcept, #4-01F00-H, lot. LB04235P).

Row | Structure (SMILES) | BTK deg Amax % (BTK-GFP) [%] | DC50 (BTK-GFP) [nM] | GI50 (OCI-LY3 cells; Homo sapiens, OCI-Ly3, 72 h) [nM] | GI50 (TMD8 cells; Homo sapiens, TMD8, 72 h) [nM] | GI50 (OCI-LY3 cells; 72 h) [nM] | GI50 (TMD8 cells; 72 h) [nM]
1 | COc1ccc(C(=O)N2CCC(CCN3CCC(OCc4ccc(-c5cc6c(-c7cc(F)cc(NC(=O)N8CC(O)C(CC(C)C)C8)c7C)ncnc6[nH]5)cc4)CC3)CC2)cc1N1CCC(=O)NC1=O (racemic) [Compound 4, (cis-rac)-N-(3-(6-(4-(((1-(2-(1-(3-(2,4-Dioxotetrahydropyrimidin-1 (2H)-yl)-4-methoxybenzoyl)piperidin-4-yl)ethyl)piperidin-4-yl)oxy)methyl)phenyl)-7H-pyrrolo[2,3-d]pyrimidin-4-yl)-5-fluoro-2-methylphenyl)-3-hydroxy-4-isobutylpyrrolidine-1-carboxamide] | 1.9 | 1.5 | 8220 | 0.34 |  | 
2 | COc1ccc(C(=O)N2CCC(CN3CCN(Cc4ccc(-c5cc6c(-c7cc(F)cc(NC(=O)N8CC(O)C(CC(C)C)C8)c7C)ncnc6[nH]5)cc4)CC3)CC2)cc1N1CCC(=O)NC1=O (racemic) [Compound 9, (cis-rac)-N-(3-(6-(4-((4-((1-(3-(2,4-Dioxotetrahydropyrimidin-1 (2H)-yl)-4-methoxybenzoyl)piperidin-4-yl)methyl)piperazin-1-yl)methyl)phenyl)-7H-pyrrolo[2,3-d]pyrimidin-4-yl)-5-fluoro-2-methylphenyl)-3-hydroxy-4-isobutylpyrrolidine-1-carboxamide] | 6.3 | 1.7 | 7150 | 0.75 |  | 
3 | COc1ccc(C(=O)N2CCC3(CCN(Cc4ccc(-c5cc6c(-c7cc(F)cc(NC(=O)N8CC(O)C(CC(C)C)C8)c7C)ncnc6[nH]5)cc4)CC3)CC2)cc1N1CCC(=O)NC1=O (racemic) [Compound 23, (cis-rac)-N-(3-(6-(4-((9-(3-(2,4-Dioxotetrahydropyrimidin-1(2H)-yl)-4-methoxybenzoyl)-3,9-diazaspiro[5.5]undecan-3-yl)methyl)phenyl)-7H-pyrrolo[2,3-d]pyrimidin-4-yl)-5-fluoro-2-methylphenyl)-3-hydroxy-4-isobutylpyrrolidine-1-carboxamide] | 3.3 | 6.1 |  |  | > 10000 | 2.36
4 | COc1ccc(C(=O)N2CCC(CCN3CCC(Oc4ccc(-c5cc6c(-c7cc(F)cc(NC(=O)N8C[C@H](CC(C)C)[C@@H](O)C8)c7C)ncnc6[nH]5)cc4)CC3)CC2)cc1N1CCC(=O)NC1=O [Compound 3, (3R,4S)—N-(3-(6-(4-((1-(2-(1-(3-(2,4-Dioxotetrahydropyrimidin-1(2H)-yl)-4-methoxybenzoyl)piperidin-4-yl)ethyl)piperidin-4-yl)oxy)phenyl)-7H-pyrrolo[2,3-d]pyrimidin-4-yl)-5-fluoro-2-methylphenyl)-3-hydroxy-4-isobutylpyrrolidine-1-carboxamide] | 3 | 0.8 | 4480 | 0.19 |  | 
5 | COc1ccc(C(=O)N2CCC3(CCN(CCc4ccc(-c5cc6c(-c7cc(F)cc(NC(=O)N8C[C@@H](CC(C)C)[C@@H](O)C8)c7C)ncnc6[nH]5)cc4)CC3)CC2)cc1N1CCC(=O)NC1=O [Compound 7, (3R,4R)—N-(3-(6-(4-(2-(9-(3-(2,4-Dioxotetrahydropyrimidin-1(2H)-yl)-4-methoxybenzoyl)-3,9-diazaspiro[5.5]undecan-3-yl)ethyl)phenyl)-7H-pyrrolo[2,3-d]pyrimidin-4-yl)-5-fluoro-2-methylphenyl)-3-hydroxy-4-isobutylpyrrolidine-1-carboxamide] | 3.7 | 1.5 | > 10000 | 0.28 |  | 

Reference: US11541056B2, “3-hydroxy-N-(3-(7H-pyrrolo[2,3-d]pyrimidin-4-yl)phenyl)pyrrolidine-1-carboxamide derivatives” (NOVARTIS AG, priority 2018, dated 2023)
